From a melting point compilation (Tetko et al.; mined from patent text by program, amines drawn as free bases though some values may be those of a salt) come the findings set out here.

The structures appear in SMILES notation. Some results are limits rather than exact numbers.

By melting point is commonly meant the temperature of the solid-liquid transition.

Consider `CC[C@@H]1C(=O)N(c2ccc(C#N)c(Cl)c2)[C@@H](C)[C@H]1O`, for which the melting point lay within 109 to 110 °C.

Consider `Clc1nc(-n2ccnc2)c2ccccc2c1-c1ccccc1`, for which the melting point was in the range of 165 to 168 °C.

On to `CN(C)c1c([N+](=O)[O-])c(C(C)(C)C)nn1-c1c(Cl)cc(C(F)(F)F)cc1Cl`, for which the melting point was 81 to 83 °C. In the case of `CS(=O)(=O)N1CCN(c2cc3ccccc3c(=O)[nH]2)CC1` it was 257 to 259 °C; in that of `COc1cc(C=Cc2nc3c(c(=O)n(C)c(=O)n3C)n2C)cc(OC)c1OCc1ccccc1`, 190 to 195 °C; in that of `Cc1c(-c2ccc([N+](=O)[O-])cc2)sc2c1c(=O)n(-c1ccccc1)c(=O)n2Cc1c(F)cccc1F`, 280 to 282 °C.

Consider `COc1ccc(-c2nc(C#N)oc2-c2ccc(OC)cc2)cc1`, for which the melting point fell in the range of 110 to 112 °C. Molecule `Cc1ccc(Sc2cncc3sc(C(N)=O)cc23)c(C)c1` yielded a melting point of 193 to 195 °C. In the case of `COc1ccccc1N1CCN(C(=O)[C@@H](Cc2ccccc2)NC(=O)OC(C)(C)C)CC1` it was 95 to 97 °C; in that of `O=c1c2cccnc2sc(=Nc2ccc(C(F)(F)F)cc2)n1Cc1ccccc1`, 126 to 128 °C; in that of `COc1cc(CO)cc(OC)c1Br`, 100 to 102 °C.

The molecule `CCCC(=O)OC1(C(=O)COC(=O)CC)CCC2C3CC(C)C4=CC(=O)C=CC4(C)C3C(O)CC21C` (configuration not stated) gave a melting point of 126 °C. `Cc1cccc(C(=O)c2cc3c(ccc4ccccc43)oc2=O)c1` returned a melting point of 190 to 192 °C. In the case of `CNc1cc(NC)nc(NS(=O)(=O)c2ccc(N)cc2)n1` it was 262 to 263 °C; in that of `CCCCn1c(=O)cn[nH]c1=O`, 135 °C; in that of `CC(C)(C)[Si](C)(C)Oc1ccc2c(c1)C(=O)c1ccc(O[Si](C)(C)C(C)(C)C)cc1C2=O`, 131 to 133 °C. In the case of `COc1ccc(S(=O)(=O)Cl)cc1N1CCN(C(=O)C(F)(F)F)CC1` it was 125 to 127 °C. For `O=C(N[C@H]1CC[C@H](CCN2CCN(c3nccc4c3OCC4)CC2)CC1)c1ccc(N2CCOCC2)cc1`, the melting point is 242 °C.

`Cc1ccccc1C(=O)Nc1ccc(C(=O)N2CCCC(N(C)C)c3ccccc32)cc1O` (configuration not stated) returned a melting point of 202 °C. For `COC(=O)CC[C@H]1C(=O)N(c2ccc(F)cc2)[C@@H]1c1ccc(O)cc1` the value was 136 to 137 °C; for `CCCCc1nc2c(N)nc3cccnc3c2n1CCCOC(C)C`, 174 to 175 °C.

Turning to `Cc1ccc(NC(=O)c2cccc(N3CCOCC3)c2)cc1[N+](=O)[O-]`, the melting point lay in the range of 149 to 150 °C. For `COc1cc(OC)cc(N2CCN(C(=S)Nc3cc(C(C)=O)c(C)nc3OC)CC2)c1` the value was 167 to 169 °C. As to `O=C1CSc2nc(C34CC5CC(CC(C5)C3)C4)cn21`, the melting point lay within 130 to 132 °C.

`COc1cc(OC)c2c3c(oc2c1)CC(C(=O)O)CC3` (configuration not stated) came in with a melting point of 194 to 196 °C. In the case of `Cc1c(-c2ccccc2)oc2c(C(=O)NCC(C)N3CCCCC3)cccc2c1=O` (configuration not stated) it was 106 to 108 °C; in that of `CN(C(=O)C(F)(F)F)c1cnc(-c2cncc(F)c2)s1`, 168 to 170 °C. For `COC(=O)Cc1cc(OCc2ccc3ccccc3n2)ccc1Nc1ccccc1` the value was 106 to 107 °C; for `COCCc1nc2c(N)nc3cc(OCc4cccc(C#N)c4)ccc3c2n1CC(C)(C)O`, 196 to 197 °C. `Nc1cc(Cl)cc(Nc2ncnc3[nH]cc(C(=O)c4ccccc4)c23)c1` yielded a melting point of more than 300 °C. As to `CCCOC(=O)C1=C(N)NC(C)=C(C(=O)OC)C1c1cccc([N+](=O)[O-])c1` (configuration not stated), the melting point was 155 °C. In the case of `CCC12CCC3c4ccc(OC)cc4CCC3C1CCC2(OC(C)=O)C(C)=O` (configuration not stated) it was 144 to 148 °C; in that of `Cc1nc(N)nc(N)c1CCC(C)c1cccc(-c2ccc(C(F)(F)F)cc2)c1` (configuration not stated), 67 to 68 °C. In the case of `O=C(Nc1ccc(F)cc1)[C@H]1CCCN(C(=O)c2ccc(F)cc2)C1` it was 163 to 164 °C; in that of `CS(=O)(=O)c1c(C(=O)c2cnoc2C2CC2)ccc(Br)c1F`, 144 to 145 °C; in that of `Cc1ccc(C=NNc2nsc3ccccc23)cc1`, 294 °C. For `Cc1c(NC(=O)c2cc3c(s2)CCCC3)cccc1-c1cn(C)c(=O)c(Nc2ccc(C3C(=O)N(C)CCN3C)cc2)n1` (configuration not stated) the value was 155 to 156 °C. On to `O=C(c1ccccc1)N1CCCc2ncc3ccccc3c21`, for which the melting point was 208 to 210 °C. In the case of `Cc1cc(C(C)(C)C)cc(C=NO)c1O` it was 107 to 108 °C. For `CN=Cc1cnc(-c2ccccc2Cl)s1` the value was 81 to 83 °C. Consider `CNC(=O)c1ccc(-c2ccc(NC(=O)NCc3cccnc3)cc2)nc1NCc1ccncc1`, for which the melting point is 218 to 219 °C. In the case of `CCCC(=O)Oc1ccc(C(O)CNC(C)(C)C)cc1OC(=O)CCC` (configuration not stated) it was 97 to 99 °C; in that of `CCNC(=O)c1ccccc1Nc1nc(Nc2ccc3c(c2)C(C)(C)CNC(=O)C3)ncc1Cl`, 261 to 262 °C; in that of `Cc1ccc(Nc2nc(Cl)nc(Cl)n2)cc1F`, 130 °C. For `O=C(NCc1ccc(Cl)cc1)c1cnc2cccc(O)c2c1O` the value was 235 to 238 °C; for `Cc1cc(Cl)ccc1N1CCCNC1=S`, 266 to 268 °C; for `CC1(c2nn(-c3c(Cl)cc(C(F)(F)F)cc3Cl)cc2C#N)CC1(Cl)Cl` (configuration not stated), 97 to 98.5 °C.

Molecule `Nc1cccc2c1C(=O)N1CCC[C@H]1c1c(C(=O)OC3CCCCC3)ncn1-2` had a melting point of 211 to 212 °C.

The molecule `CC1(C)C(C(=O)NC(=O)CN)C1(C)C` had a melting point of 176 °C. For the molecule `COC(=O)c1ccc(OC)cc1Oc1cc(Cl)ccc1[N+](=O)[O-]`, the melting point lay in the range of 121 to 123 °C.

Molecule `CC(=O)NC1CCC2C(C1)c1c(OC(C)=O)cc(OC(C)CCCc3ccccc3)cc1N(C)C2C` (configuration not stated) had a melting point of 120 to 122 °C. For `CCOc1c(CN2CCCCC2)c2c(c3c1OC(C)(C)C3)C(c1cccc(NC(=O)c3ccccc3C(=O)O)c1)=NC(C)(C)C2` the value was 155 to 157 °C; for `CC(=O)NC[C@H]1CN(c2ccc(C3CCN(CC#N)CC3)c(F)c2)C(=O)O1`, 165 to 167 °C; for `O=C(OCC1OC(n2ccc(=O)[nH]c2=O)CC1OC(=O)c1ccccc1)c1ccccc1` (configuration not stated), 223 to 225 °C. As to `Cc1cccc(N2CCN(CCc3c(C)nc4cc(C)ccn4c3=O)CC2)c1`, the melting point was in the range of 96 to 97 °C. In the case of `CC(C)(C)c1cc(S)cc(C(C)(C)C)c1` it was 47 to 49 °C; in that of `CCOC(=O)Nc1ccc(C(=O)OCC)nc1`, 177 to 178 °C. In the case of `CC(C)(C)c1cc(OCc2ccc(-c3nnn[nH]3)cc2)cc(C(C)(C)C)c1` it was 253 to 255 °C; in that of `CCOC(Cc1c(N(C(C)=O)C(C)=O)nc(NC(C)=O)[nH]c1=O)OCC`, 128 to 130 °C; in that of `CCOC(=O)C(CC#Cc1ccccc1)(NC(C)=O)C(=O)OCC`, 94 to 96.5 °C. In the case of `CSc1ccc(C(C#N)=NO)cc1SC` it was 131 to 133 °C; in that of `C=Cc1ccc2c(c1)CCN2C(=O)OC(C)(C)C`, 85.5 to 88.6 °C. `CCc1cn(C2CC(OC(C)=O)C(CNC(=O)Cc3ccccc3NC(C)=O)O2)c(=O)[nH]c1=O` (configuration not stated) had a melting point of 143 to 145 °C. The molecule `COCC1(CCCCCCCCCCCCC2(C(=O)O)CC2)CC1` showed a melting point of 36.4 to 37.6 °C.

In the case of `Nc1cc(C(=O)Nc2ccccc2)ccc1F`, the melting point was 167 to 170 °C. For `COC(=O)c1c(Oc2ccc(Cl)cc2N)c2ccccc2n1Cc1ccccc1` the value was 121 to 123 °C.

In turn, `CCCCc1c2c(nn1C)c(N)nc1ccccc12` registered a melting point of 202 to 203 °C. For `CC(C)NC(=O)CCCCCCI` the value was 46 to 51 °C; for `CCOC(=O)c1c(O)nc2c(C(F)(F)F)cccc2c1O`, 190 °C.

As for `CN1C(=O)CN(C(=O)Cl)C(c2ccccc2)c2cc(Cl)ccc21` (single isomer, unassigned; (-)), the melting point was 201 to 204 °C. In the case of `OCc1ccc(OCc2ccc(-c3ccccc3)cn2)cc1` it was 159 to 160 °C; in that of `O=c1[nH]c2ccc3ccc(-n4cccc4CN4CCN(Cc5ccccc5)CC4)cc3c2[nH]c1=O`, more than 250 °C. For the molecule `CNS(=O)(=O)Nc1ncccc1C(=O)OC`, the melting point lay in the range of 133 to 139 °C. For `Cc1nc(Nc2ccc(Cl)cc2)sc1-c1nc2ccccc2c(=O)n1-c1ccc(Cl)cc1` the value was 267 to 268 °C.

`CCCN(CCC)C(=O)Cn1c(-c2ccc([N+](=O)[O-])cc2)nc2cccnc21` returned a melting point of 205 to 208 °C. In the case of `Cn1c(=O)n(OCc2ccccc2)c(=O)c2cc(F)c(F)cc21` it was 167 to 169 °C. `O=C(Cn1cnc2ccccc21)c1ccc(Cl)cc1Cl` registered a melting point of 130 to 132 °C. For the molecule `CCOC(=O)c1c(CN(CC)CC)nc2ccc(Cl)cc2c1-c1ccc(Cl)cc1`, the melting point was in the range of 132 to 133 °C. In the case of `CCCc1nnc(/C=C/c2nc(-c3ccccc3)oc2COc2ccc(OCc3nc(-c4ccccc4)oc3C)cc2)o1` it was 119 to 120 °C; in that of `O=C1Nc2ccc3cn[nH]c3c2C1=O`, more than 300 °C; in that of `COc1ccc(S(=O)(=O)NCCCCCCCC(=O)O)cc1`, 102 to 103 °C. In the case of `COc1ccc2c(c1)C=Cc1cc(C)ccc1C2c1cn(-c2ccnc(N(C)CC(=O)Nc3nc(CC(=O)O)cs3)n2)c(=O)[nH]c1=O` (configuration not stated) it was 186 °C. For `CCOC(=O)Cc1nc(-c2ccc(F)cc2)oc1CC(C)C` the value was 60 to 61 °C; for `CCc1c([N+](=O)[O-])c(C(N)=O)nn1C1CN(C(c2ccccc2)c2ccccc2)C1`, 254 to 257 °C. For the molecule `COc1cc(C2=CCCCC2)c(Cl)cc1C(=O)N1Cc2cccn2Cc2ccccc21`, the melting point fell in the range of 92 to 98 °C. In the case of `C=CCc1cc(C(C)=O)c(OC)cc1OCCCCC#N` it was 40 to 42 °C; in that of `CC(C)CCCC(C)C1CCC2C3CC=C4CC(N=[N+]=[N-])CCC4(C)C3CCC12C` (configuration not stated), 84 to 86 °C.
